Measurements taken from US6288230A, “2-(2, 3-dihydrobenzofuran-5-yl)-4-aminomethylimidazoles: dopamine receptor subtype specific ligands” (Neurogen Corporation, priority 1999, dated 2001).
Structures can show the parent of a compound that is named as a salt.

Experiments:
D2 receptor = D2 receptor (Chlorocebus aethiops, UniProt P52702); assay: D2 receptor binding (displacement of 3H-YM 09151-2, COS cells with recombinant receptor); design: species or system African Green monkey; conditions: 0.5 nM 3H-YM 09151-2; nonspecific binding with 1 mM spiperone
D4 receptor = D4 receptor binding (displacement of 3H-YM 09151-2, COS cells with recombinant receptor); design: species or system African Green monkey; conditions: 0.5 nM 3H-YM 09151-2; nonspecific binding with 1 mM spiperone
Experimental: Pellets of COS cells containing recombinantly produced D2 or D4 receptors from African Green monkey are used for the assays. The sample is homogenized in 100 volumes (w/vol) of 0.05 M Tris HCl buffer at […] and pH 7.4. The sample is then centrifuged at 30,000×g and resuspended and rehomogenized. The sample is then centrifuged again at 30,000×g and the final tissue sample is frozen until use. The tissue is resuspended 1:20 (wt/vol) in 0.05 M Tris HCl buffer containing 100 mM NaCl.

Sequence of D2 receptor (P52702 whole entry): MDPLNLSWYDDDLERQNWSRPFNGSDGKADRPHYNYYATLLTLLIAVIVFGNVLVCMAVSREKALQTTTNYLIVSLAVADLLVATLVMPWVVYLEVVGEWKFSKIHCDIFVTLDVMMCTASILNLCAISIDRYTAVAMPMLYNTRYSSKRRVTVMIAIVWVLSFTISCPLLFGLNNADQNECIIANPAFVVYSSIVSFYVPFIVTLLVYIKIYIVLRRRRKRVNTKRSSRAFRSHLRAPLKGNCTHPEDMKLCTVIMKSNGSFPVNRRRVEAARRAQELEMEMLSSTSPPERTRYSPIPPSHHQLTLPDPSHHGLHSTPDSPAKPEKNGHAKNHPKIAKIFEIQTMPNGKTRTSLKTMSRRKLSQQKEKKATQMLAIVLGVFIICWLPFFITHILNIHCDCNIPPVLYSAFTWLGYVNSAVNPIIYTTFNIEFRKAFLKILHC

| SMILES | Ki (D2 receptor) [µM] | Ki (D4 receptor) [µM] |
| --- | --- | --- |
| Cc1cnc(N2CCN(Cc3cnc(-c4ccc5c(c4)CCO5)[nH]3)CC2)nc1 [Compound 3a, 5-(5-{[4-(5-methylpyrimidin-2-yl)piperazinyl]-methyl}imidazol-2-yl)-2,3-dihydrobenzo[b]furan] | 0.716 |  |
| c1ccc2c(N3CCN(Cc4c[nH]c(-c5ccc6c(c5)CCO6)n4)CC3)nccc2c1 [Compound 8, 2-(2,3-Dihydrobenzofuran-5-yl)-4-(1-[4-{isoquinolin-1-yl}piperazin-1-yl]methyl)imidazole] | 0.125 | 0.001 |
| COc1ccccc1N1CCN(Cc2c[nH]c(-c3ccc4c(c3)CCO4)n2)CC1 [Compound 1, 2-(2,3-Dihydrobenzofuran-5-yl)-4-(1-[4-{2-methoxyphenyl}piperazin-1-yl]methyl)imidazole] | 0.143 | 0.003 |
| c1ccc(CC2CCN(Cc3c[nH]c(-c4ccc5c(c4)CCO5)n3)CC2)cc1 [Compound 6, 2-(2,3-Dihydrobenzofuran-5-yl)-4-(1-[4-benzylpiperidin-1-yl]methyl)imidazole hydrochloride] | 0.65 | 0.003 |
| c1ccc2nc(N3CCN(Cc4cnc(-c5ccc6c(c5)CCO6)[nH]4)CC3)ncc2c1 [Compound 7, 2-(2,3-Dihydrobenzofuran-5-yl)-4-(1-[4-{4,5-benzopyrimidin-2-yl}piperazin-1-yl]methyl)imidazole hydrochloride] | 1.13 | 0.032 |
